Among the test systems are A498 renal; EKVX NSCLC; IGROV1 ovarian; MALME-3M melanoma; MOLT-4 leukemia; NCI-H226 lung; NCI-H460 lung; NCI-H522 lung; OVCAR-4 ovarian; SF-539 CNS; SNB-19 CNS; SNB-75 CNS; SR leukemia; UACC-257 melanoma; UO-31 renal; CCRF-CEM leukemia; M14 melanoma; MCF7 breast; PC-3 prostate; SK-MEL-5 melanoma.
Common to all, as to assay: growth of human tumour cells (NCI), 48 h

Molecules are shown by their SMILES.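 Step 1: Grow cells in 96-well plates. Step 2: Expose to compound for 48 hours at 5 concentrations. Step 3: Interpolate endpoints linearly; if unreached, use highest concentration. TGI denotes the concentration required for complete inhibition of growth.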 Where a SMILES comes first, the peptide text is derived from it. [ ]: non-standard residue; d: D form. Phe(4-NO2) = N[CH](Cc1ccc([N+](=O)[O-])cc1)C(=O)O

With `CCOC(=O)Cc1csc(Nc2ccc(OCC)cc2)n1`, the TGI in the experiment on A498 renal, in the experiment on EKVX NSCLC, in the experiment on IGROV1 ovarian, in the experiment on MALME-3M melanoma, in the experiment on MOLT-4 leukemia and in the experiment with NCI-H226 lung was greater than 100 µM in each case. The TGI in the experiment on NCI-H460 lung, in the experiment on NCI-H522 lung, in the experiment with OVCAR-4 ovarian, in the experiment with SF-539 CNS, in the experiment on SNB-19 CNS and in the experiment on SNB-75 CNS was greater than 100 µM in each case. In addition, the TGI in the experiment with SR leukemia, with UACC-257 melanoma and with UO-31 renal was greater than 100 µM in each case.

As to `CC(NC(=O)C(Cc1ccc([N+](=O)[O-])cc1)NC(=O)C(N)CCCCN)C(=O)NC(Cc1ccc([N+](=O)[O-])cc1)C(N)=O` (centres undefined) (H-K[Phe(4-NO2)]A[Phe(4-NO2)]-NH2; configuration not given here), the TGI in the experiment on A498 renal was greater than 100 µM; in the experiment on CCRF-CEM leukemia, greater than 100 µM; in the experiment with EKVX NSCLC it was greater than 100 µM; in the experiment on IGROV1 ovarian, greater than 100 µM; with M14 melanoma it was greater than 74.3 µM; with MALME-3M melanoma, greater than 83.7 µM. Moreover, the TGI is greater than 100 µM with MCF7 breast; greater than 59.4 µM with MOLT-4 leukemia; greater than 100 µM in the experiment with NCI-H226 lung; greater than 100 µM with NCI-H460 lung; greater than 44.4 µM in the experiment with NCI-H522 lung; greater than 100 µM in the experiment with OVCAR-4 ovarian. The TGI is greater than 100 µM in the experiment with PC-3 prostate; greater than 83.9 µM in the experiment with SF-539 CNS; 51.5 µM in the experiment with SK-MEL-5 melanoma; greater than 100 µM in the experiment on SNB-19 CNS; greater than 100 µM in the experiment on SNB-75 CNS; greater than 84.7 µM in the experiment with UACC-257 melanoma. In the experiment with UO-31 renal, this molecule yielded a TGI greater than 66.6 µM.

Turning to `CCCCC(C(=O)CCC(=O)Nc1ccc(Cl)c(Cl)c1)C(=O)C(C)C` (centres undefined), the TGI with A498 renal, in the experiment with CCRF-CEM leukemia, in the experiment with EKVX NSCLC, in the experiment with IGROV1 ovarian, with M14 melanoma and in the experiment with MALME-3M melanoma was greater than 100 µM in each case. Also, the TGI with MOLT-4 leukemia, in the experiment with NCI-H226 lung, with NCI-H460 lung, with NCI-H522 lung, in the experiment with OVCAR-4 ovarian and in the experiment with SF-539 CNS was greater than 100 µM throughout. The TGI in the experiment on SK-MEL-5 melanoma was greater than 100 µM; in the experiment on SNB-19 CNS, greater than 100 µM; in the experiment on SNB-75 CNS it was 75 µM; in the experiment with SR leukemia, greater than 100 µM; in the experiment with UACC-257 melanoma it was greater than 100 µM; with UO-31 renal it was greater than 100 µM.

For `COc1cc(O)c2c(c1)O[C@@H]1OCC[C@H]21`, the TGI in the experiment on A498 renal, in the experiment on CCRF-CEM leukemia, in the experiment on EKVX NSCLC, with IGROV1 ovarian, with M14 melanoma and with MALME-3M melanoma was greater than 100 µM each time. Besides, the TGI in the experiment on MOLT-4 leukemia, in the experiment with NCI-H226 lung, in the experiment on NCI-H460 lung, in the experiment with OVCAR-4 ovarian, with SF-539 CNS and in the experiment with SK-MEL-5 melanoma was greater than 100 µM in each case. Further, the TGI with SNB-19 CNS, in the experiment on SNB-75 CNS, with SR leukemia, in the experiment on UACC-257 melanoma and in the experiment on UO-31 renal was greater than 100 µM throughout.

Consider `CN(C)CCCNC(=O)CCNC(=O)c1cc(NC(=O)c2cc(NC(=O)c3cc(NC(=O)c4nccn4C)cn3C)cn2C)cn1C`, for which the TGI in the experiment on A498 renal, in the experiment on CCRF-CEM leukemia, in the experiment on EKVX NSCLC, in the experiment with IGROV1 ovarian, with M14 melanoma and with MALME-3M melanoma was greater than 100 µM throughout. The TGI was greater than 100 µM in the experiment on MCF7 breast; greater than 100 µM with MOLT-4 leukemia; greater than 100 µM in the experiment with NCI-H226 lung; greater than 100 µM in the experiment on NCI-H460 lung; 97 µM in the experiment on NCI-H522 lung; greater than 20.3 µM in the experiment with OVCAR-4 ovarian. The TGI with PC-3 prostate, in the experiment on SF-539 CNS, in the experiment with SK-MEL-5 melanoma, in the experiment with SNB-19 CNS, in the experiment on SNB-75 CNS and in the experiment with UACC-257 melanoma was greater than 100 µM each time. This molecule also returned a TGI with UO-31 renal greater than 100 µM.

Turning to `O=C(SC1=NCCN1)c1cccc2ccccc12`, the TGI with A498 renal was greater than 100 µM; with CCRF-CEM leukemia, 70.1 µM; with EKVX NSCLC, greater than 100 µM; in the experiment on IGROV1 ovarian, greater than 100 µM; with M14 melanoma it was greater than 100 µM; in the experiment on MALME-3M melanoma, greater than 100 µM. Further, the TGI is greater than 100 µM in the experiment with MCF7 breast; 43.2 µM in the experiment with MOLT-4 leukemia; greater than 100 µM in the experiment with NCI-H226 lung; greater than 100 µM in the experiment with NCI-H460 lung; 74.9 µM in the experiment with NCI-H522 lung; greater than 100 µM in the experiment with OVCAR-4 ovarian. Besides, the TGI in the experiment with PC-3 prostate was greater than 100 µM; in the experiment with SF-539 CNS it was greater than 100 µM; with SK-MEL-5 melanoma it was greater than 100 µM; in the experiment on SNB-19 CNS it was greater than 100 µM; in the experiment with SNB-75 CNS, 96.8 µM; in the experiment with UACC-257 melanoma it was 95.9 µM. For the same molecule, in the experiment on UO-31 renal, the TGI is greater than 100 µM.

In the case of `Cc1nc(N2N=C(c3ccc(Cl)cc3)CCC2=O)sc1[N+](=O)[O-]`, the TGI in the experiment on CCRF-CEM leukemia, in the experiment on EKVX NSCLC, in the experiment with IGROV1 ovarian, in the experiment on M14 melanoma, in the experiment on MALME-3M melanoma and in the experiment on MOLT-4 leukemia was greater than 100 µM in each case. In addition, the TGI with NCI-H226 lung, in the experiment on NCI-H460 lung, in the experiment on NCI-H522 lung, in the experiment on OVCAR-4 ovarian, in the experiment with SF-539 CNS and in the experiment on SK-MEL-5 melanoma was greater than 100 µM each time. The TGI in the experiment with SNB-19 CNS, with SNB-75 CNS, in the experiment with SR leukemia, in the experiment on UACC-257 melanoma and in the experiment on UO-31 renal was greater than 100 µM each time.

The record behind these values is PubChem BioAssay (NCI).
